Assay results from patent US8354419B2, “Benzimidazole analogues for the treatment or prevention of flavivirus infections” (Vertex Pharmaceuticals Incorporated, priority 2009, dated 2013).

System: HCV (Ib) RNA replication
Assay: Cell-based luciferase reporter HCV (1b) RNA replication assay (replicon cell lines Huh-7 5.2 and ET)
Parameters: species or system Hepatitis C virus
Conditions: Hepatitis C virus, Huh-7, 96 h, HCV 1b genotype replicon, luciferase readout, 4 days incubation; read-out: EC50_1b
Method in brief: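 Huh-7-derived 5.2 or ET replicon cells carrying a firefly luciferase reporter were seeded at ~3000 cells/well in medium without G418 or phenol red. Compound was added after 3-4 h, followed by 4 days at 37 °C. Luciferase readout was used, with IC50 fitted by nonlinear regression from eleven concentrations in duplicate.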

Row | SMILES | EC50 [nM]
1 | C[C@H](C(=O)N1CCC[C@H]1c1nc2cc(C#Cc3ccc4[nH]c([C@@H]5CCCN5C(=O)[C@@H](C)N5CCCC5=O)nc4c3)ccc2[nH]1)N1CCCC1=O [Compound 83] | ≤ 5
2 | CC(C)C[C@@H](C(=O)N1CCC[C@H]1c1nc2cc(C#Cc3ccc4[nH]c([C@@H]5CCCN5C(=O)[C@H](CC(C)C)N5CCCC5=O)nc4c3)ccc2[nH]1)N1CCCC1=O [Compound 84] | ≤ 5
3 | CC(C)C(NC(=O)C1CCCCC1)C(=O)N1CCC[C@H]1c1nc2cc(C#Cc3ccc4[nH]c([C@@H]5CCCN5C(=O)C(NC(=O)C5CCCCC5)C(C)C)nc4c3)ccc2[nH]1 (some centres unmarked) [Compound 85] | 5 to 5000
4 | O=C1CC[C@H](C(=O)N2CCC[C@H]2c2nc3cc(C#Cc4ccc5[nH]c([C@@H]6CCCN6C(=O)[C@H]6CCC(=O)N6)nc5c4)ccc3[nH]2)N1 [Compound 86] | > 5000
5 | CC(C)[C@H](NC(=O)[C@@H]1CCC(=O)N1)C(=O)N1CCC[C@H]1c1nc2cc(C#Cc3ccc4[nH]c([C@@H]5CCCN5C(=O)[C@@H](NC(=O)[C@@H]5CCC(=O)N5)C(C)C)nc4c3)ccc2[nH]1 [Compound 87] | > 5000
6 | CC(C)(NC(=O)OCc1ccccc1)C(=O)N1CCC[C@H]1c1nc2cc(C#Cc3ccc4[nH]c([C@@H]5CCCN5C(=O)C(C)(C)NC(=O)OCc5ccccc5)nc4c3)ccc2[nH]1 [Compound 88] | 5 to 5000
7 | CC(C)[C@H](NC(=O)Cc1c[nH]c2ccccc12)C(=O)N1CCC[C@H]1c1nc2cc(C#Cc3ccc4[nH]c([C@@H]5CCCN5C(=O)[C@@H](NC(=O)Cc5c[nH]c6ccccc56)C(C)C)nc4c3)ccc2[nH]1 [Compound 89] | 5 to 5000
8 | COC(=O)N[C@H](C(=O)N1CC(F)(F)C[C@H]1c1nc2cc(C#Cc3ccc4nc([C@@H]5CC(F)(F)CN5C(=O)[C@@H](NC(=O)OC)C(C)C)[nH]c4c3)ccc2[nH]1)C(C)C [Compound 90] | ≤ 5
9 | CC(C)[C@H](NC(=O)N(C)C)C(=O)N1CCC[C@H]1c1nc2cc(C#Cc3ccc4nc([C@@H]5CCCN5C(=O)[C@@H](NC(=O)N(C)C)C(C)C)[nH]c4c3)ccc2[nH]1 [Compound 91] | ≤ 5
10 | CC(C)(C)OC(=O)N1CCCC[C@H]1c1nc2cc(C#Cc3ccc4[nH]c([C@@H]5CCCCN5C(=O)OC(C)(C)C)nc4c3)ccc2[nH]1 [Compound 92] | ≤ 5
11 | COC(=O)NCC(=O)N1CCC[C@H]1c1nc2cc(C#Cc3ccc4nc([C@@H]5CCCN5C(=O)CNC(=O)OC)[nH]c4c3)ccc2[nH]1 [Compound 93] | 5 to 5000
12 | COC(=O)N[C@H](C(=O)N1CCC[C@H]1c1nc2cc(C#Cc3ccc4[nH]c([C@@H]5CCCN5C(=O)[C@@H](NC(=O)OC)C5CC5)nc4c3)ccc2[nH]1)C1CC1 [Compound 94] | 5 to 5000
13 | COC(=O)N[C@H](C(=O)N1CCC[C@H]1c1nc2cc(C#Cc3ccc4[nH]c([C@@H]5CCCN5C(=O)[C@@H](NC(=O)OC)C5CCCCC5)nc4c3)ccc2[nH]1)C1CCCCC1 [Compound 95] | ≤ 5
14 | CC(=O)N[C@H](C(=O)N1CCC[C@H]1c1nc2cc(C#Cc3ccc4[nH]c([C@@H]5CCCN5C(=O)[C@@H](NC(C)=O)C(C)C)nc4c3)ccc2[nH]1)C(C)C [Compound 96] | 5 to 5000
15 | CC(=O)N[C@H](C(=O)N1CCC[C@H]1c1nc2cc(C#Cc3ccc4[nH]c([C@@H]5CCCN5C(=O)[C@H](NC(C)=O)C(C)C)nc4c3)ccc2[nH]1)C(C)C [Compound 97] | 5 to 5000
16 | CC(=O)N[C@@H](C(=O)N1CCC[C@@H]1c1nc2cc(C#Cc3ccc4[nH]c([C@H]5CCCN5C(=O)[C@H](NC(C)=O)C(C)C)nc4c3)ccc2[nH]1)C(C)C [Compound 98] | 5 to 5000
17 | O=C([C@H]1C[C@@H](O)CN1)N1CCC[C@H]1c1nc2cc(C#Cc3ccc4[nH]c([C@@H]5CCCN5C(=O)[C@H]5C[C@@H](O)CN5)nc4c3)ccc2[nH]1 [Compound 99] | 5 to 5000
18 | O=C([C@H]1C[C@H](O)CN1)N1CCC[C@H]1c1nc2cc(C#Cc3ccc4[nH]c([C@@H]5CCCN5C(=O)[C@H]5C[C@H](O)CN5)nc4c3)ccc2[nH]1 [Compound 100] | > 5000
19 | CC(C)[C@H](NC(=O)O[C@H]1CCOC1)C(=O)N1CCC[C@H]1c1nc2cc(-c3ccc(-c4ccc5[nH]c([C@@H]6CCCN6C(=O)[C@@H](NC(=O)O[C@H]6CCOC6)C(C)C)nc5c4)s3)ccc2[nH]1 [Compound 101] | 5 to 5000
20 | COC(=O)N[C@@H](C(=O)N1CC[C@H]1c1nc2cc(C#CC#Cc3ccc4[nH]c([C@@H]5CCN5C(=O)[C@H](NC(=O)OC)C(C)C)nc4c3)ccc2[nH]1)C(C)C [Compound 102] | ≤ 5
21 | O=C(CC1CCCCC1)N1CCC[C@H]1c1nc2cc(C#Cc3ccc4[nH]c([C@@H]5CCCN5C(=O)CC5CCCCC5)nc4c3)ccc2[nH]1 [Compound 103] | 5 to 5000
22 | CC[C@@H](NC(C)=O)C(=O)N1CCC[C@H]1c1nc2cc(C#Cc3ccc4[nH]c([C@@H]5CCCN5C(=O)[C@@H](CC)NC(C)=O)nc4c3)ccc2[nH]1 [Compound 104] | 5 to 5000
23 | COCCCC(=O)N1CCC[C@H]1c1nc2cc(C#Cc3ccc4[nH]c([C@@H]5CCCN5C(=O)CCCOC)nc4c3)ccc2[nH]1 [Compound 105] | 5 to 5000
24 | O=C(CC1CCOCC1)N1CCC[C@H]1c1nc2cc(C#Cc3ccc4[nH]c([C@@H]5CCCN5C(=O)CC5CCOCC5)nc4c3)ccc2[nH]1 [Compound 106] | 5 to 5000

Row | SMILES | EC50 [nM]
25 | CCOCCC(=O)N1CCC[C@H]1c1nc2cc(C#Cc3ccc4[nH]c([C@@H]5CCCN5C(=O)CCOCC)nc4c3)ccc2[nH]1 [Compound 107] | 5 to 5000
26 | O=C(CC1CC1)N1CCC[C@H]1c1nc2cc(C#Cc3ccc4[nH]c([C@@H]5CCCN5C(=O)CC5CC5)nc4c3)ccc2[nH]1 [Compound 108] | 5 to 5000
27 | CCC[C@H](NC(C)=O)C(=O)N1CCC[C@H]1c1nc2cc(C#Cc3ccc4[nH]c([C@@H]5CCCN5C(=O)[C@H](CCC)NC(C)=O)nc4c3)ccc2[nH]1 [Compound 109] | 5 to 5000
28 | CC(=O)NC1(C(=O)N2CCC[C@H]2c2nc3cc(C#Cc4ccc5[nH]c([C@@H]6CCCN6C(=O)C6(NC(C)=O)CC6)nc5c4)ccc3[nH]2)CC1 [Compound 110] | > 5000
29 | CC[C@H](NC(C)=O)C(=O)N1CCC[C@H]1c1nc2cc(C#Cc3ccc4[nH]c([C@@H]5CCCN5C(=O)[C@H](CC)NC(C)=O)nc4c3)ccc2[nH]1 [Compound 111] | 5 to 5000
30 | CC(C)(C)OC(=O)N1CCCC[C@H]1c1nc2cc(-c3ccc(-c4ccc5nc([C@@H]6CCCCN6C(=O)OC(C)(C)C)[nH]c5c4)s3)ccc2[nH]1 [Compound 112] | 5 to 5000
31 | CC(C)(C)OC(=O)N[C@H](CC1CCC1)C(=O)N1CCC[C@H]1c1nc2cc(C#Cc3ccc4[nH]c([C@@H]5CCCN5C(=O)[C@@H](CC5CCC5)NC(=O)OC(C)(C)C)nc4c3)ccc2[nH]1 [Compound 113] | ≤ 5
32 | CC(C)(C)OC(=O)N1CC(F)(F)C[C@H]1C(=O)N1CCC[C@H]1c1nc2cc(C#Cc3ccc4[nH]c([C@@H]5CCCN5C(=O)[C@@H]5CC(F)(F)CN5C(=O)OC(C)(C)C)nc4c3)ccc2[nH]1 [Compound 114] | 5 to 5000
33 | COC(=O)N[C@H](C(=O)N1CCC[C@H]1c1nc2cc(C#Cc3ccc4nc([C@@H]5CCCN5C(=O)[C@@H](NC(=O)OC)C5CCCCC5)[nH]c4c3)ccc2[nH]1)C(C)C [Compound 115] | ≤ 5
34 | COC(=O)N[C@H](C(=O)N1CCC[C@H]1c1nc2cc(CCc3ccc4[nH]c([C@@H]5CCCN5C(=O)[C@H](NC(=O)OC)C(C)C)nc4c3)ccc2[nH]1)C(C)C [Compound 116] | ≤ 5
35 | COC(=O)N[C@H](C(=O)N1CCC[C@H]1c1nc2cc(C#Cc3ccc4nc([C@@H]5CCCN5C(=O)[C@H](C(C)C)N(C)C(=O)OC)[nH]c4c3)ccc2[nH]1)C(C)C [Compound 117] | ≤ 5
36 | CC[C@H](NC(=O)OC)C(=O)N1CCC[C@H]1c1nc2cc(C#Cc3ccc4[nH]c([C@@H]5CCCN5C(=O)[C@H](CC)NC(=O)OC)nc4c3)ccc2[nH]1 [Compound 118] | ≤ 5
37 | O=C(OCc1ccccc1)N1COC[C@@H]1C(=O)N1CCC[C@H]1c1nc2cc(C#Cc3ccc4[nH]c([C@@H]5CCCN5C(=O)[C@H]5COCN5C(=O)OCc5ccccc5)nc4c3)ccc2[nH]1 [Compound 119] | ≤ 5
38 | O=C(C1CCCC1)N1CCCC[C@H]1c1nc2cc(C#CC#Cc3ccc4[nH]c([C@@H]5CCCCN5C(=O)C5CCCC5)nc4c3)ccc2[nH]1 [Compound 120] | > 5000
39 | CC(C)(C)OC(=O)NC(CC1CCC1)C(=O)N1CCC[C@H]1c1nc2cc(C#Cc3ccc4[nH]c([C@@H]5CCCN5C(=O)[C@H](CC5CCC5)NC(=O)OC(C)(C)C)nc4c3)ccc2[nH]1 (some centres unmarked) [Compound 121] | 5 to 5000
40 | COC(=O)N[C@H](C(=O)N1CCC[C@H]1c1nc2cc(C#Cc3ccc4nc([C@@H]5CCCN5C(=O)NC(C)C)[nH]c4c3)ccc2[nH]1)C(C)C [Compound 122] | ≤ 5
41 | COC(=O)N[C@H](C(=O)N1CCC[C@H]1c1nc2cc(C#Cc3ccc4nc([C@@H]5CCCN5C(=O)NC5CCCCC5)[nH]c4c3)ccc2[nH]1)C(C)C [Compound 123] | 5 to 5000
42 | CC(C)(C)CC(=O)N1CCC[C@H]1c1nc2cc(C#Cc3ccc4[nH]c([C@@H]5CCCN5C(=O)CC(C)(C)C)nc4c3)ccc2[nH]1 [Compound 124] | 5 to 5000
43 | O=C(CC1CCCC1)N1CCC[C@H]1c1nc2cc(C#Cc3ccc4[nH]c([C@@H]5CCCN5C(=O)CC5CCCC5)nc4c3)ccc2[nH]1 [Compound 125] | 5 to 5000
44 | CC(C)(C)OC(=O)NC(C)(C)C(=O)N1CCC[C@H]1c1nc2cc(C#Cc3ccc4[nH]c([C@@H]5CCCN5C(=O)C(C)(C)NC(=O)OC(C)(C)C)nc4c3)ccc2[nH]1 [Compound 128] | 5 to 5000
45 | CC(C)(C)OC(=O)N1CC[C@H]1C(=O)N1CCC[C@H]1c1nc2cc(C#Cc3ccc4[nH]c([C@@H]5CCCN5C(=O)[C@@H]5CCN5C(=O)OC(C)(C)C)nc4c3)ccc2[nH]1 [Compound 129] | > 5000
46 | CC(C)(C)OC(=O)NC1(C(=O)N2CCC[C@H]2c2nc3cc(C#Cc4ccc5[nH]c([C@@H]6CCCN6C(=O)C6(NC(=O)OC(C)(C)C)CCC6)nc5c4)ccc3[nH]2)CCC1 [Compound 130] | 5 to 5000
47 | COC(=O)N[C@H](C(=O)N1CCC[C@H]1c1nc2cc(-c3ccsc3-c3ccc4[nH]c([C@@H]5CCCN5C(=O)[C@@H](NC(=O)OC)C(C)C)nc4c3)ccc2[nH]1)C(C)C [Compound 133] | ≤ 5
